Experimental findings from US11730720B2, “ALK5 inhibitors” (THERAVANCE BIOPHARMA R&D IP, LLC, priority 2018, dated 2023) are described below.

Experiment [1] has as its system TGF-β-stimulated SMAD3 phosphorylation in BEAS-2B cells. In words: Cellular ALK5 potency assay, inhibition of TGF-β stimulated pSMAD3 formation in BEAS-2B cells. To be noted: Homo sapiens, inhibition of TGF-β (10 ng/mL) stimulated pSMAD3 formation, 1 hour compound incubation, read-out: BEAS2B pIC50 (converted). The format is cell-based. In a few lines: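 Phospho-SMAD3 was quantified by AlphaLISA in lysates of human lung epithelial BEAS-2B cells. Compound was added 1 h (37 °C, HEPES/BSA-supplemented HBSS) before a 30 min challenge with 10 ng/mL TGF-β. Values are pIC50 relative to stimulated cells without compound.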

For experiment [2], the target named is T1, recombinant human ALK5 (TGF-βR1) protein (Homo sapiens, UniProt P36897).
T1 construct: purchased Life Technologies PR9075A
T1 sequence (P36897 34-503): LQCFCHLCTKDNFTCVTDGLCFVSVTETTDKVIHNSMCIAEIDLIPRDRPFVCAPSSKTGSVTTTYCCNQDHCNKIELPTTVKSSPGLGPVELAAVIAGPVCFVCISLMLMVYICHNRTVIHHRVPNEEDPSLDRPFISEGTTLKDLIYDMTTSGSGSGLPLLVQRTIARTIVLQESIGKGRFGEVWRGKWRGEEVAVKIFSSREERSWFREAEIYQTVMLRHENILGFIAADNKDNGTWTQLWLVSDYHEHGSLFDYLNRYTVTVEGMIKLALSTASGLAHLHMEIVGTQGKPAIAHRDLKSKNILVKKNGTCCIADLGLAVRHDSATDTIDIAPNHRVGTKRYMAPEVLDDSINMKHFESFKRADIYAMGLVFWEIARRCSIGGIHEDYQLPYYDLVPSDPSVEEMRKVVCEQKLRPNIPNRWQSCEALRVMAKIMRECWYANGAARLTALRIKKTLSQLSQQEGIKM
Description: Biochemical ALK5 (TGF-βR1) assay to measure pKi (LANCE Ultra ULight kinase assay). The conditions noted are these: apparent pKi, converted from pIC50 using the Cheng-Prusoff equation. In a few lines: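 TR-FRET kinase format: compound dose range 10 μM–25 pM equilibrated 60 min with human ALK5 and ULight-labelled topoisomerase 2α peptide in HEPES/MgCl2 buffer pH 7.5 with DTT. Reaction started with ATP (125 μM stock, 5× final), 60 min at 37° C, stopped with EDTA/Eu-anti-phospho antibody; pKi derived from pIC50 via Cheng-Prusoff.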

On to `CN1CCN(C2CCN(c3cnc4ccc(-c5nc[nH]c5-c5cc(Cl)ccc5F)nc4c3)CC2)CC1` [Compound 2-10, 2-[5-(5-chloro-2-fluoro-phenyl)-1H-imidazol-4-yl]-7-[4-(4-methylpiperazin-1-yl)-1-piperidyl]-1,5-naphthyridine], for which the IC50 in experiment [1] is 25.1 to 158 nM. For the same compound, in experiment [2], the Ki is 0.0398 to 0.316 nM.
For `O=C(O)[C@@H]1CN(c2cnc3ccc(-c4nc[nH]c4-c4cc(Cl)ccc4F)nc3c2)CCN1` [Compound 2-13, (S)-4-(6-(5-(5-chloro-2-fluorophenyl)-1H-imidazol-4-yl)-1,5-naphthyridin-3-yl)piperazine-2-carboxylic acid], in that order: 200 to 1260 nM and 0.398 to 3.16 nM.
As to `Fc1ccc(Cl)cc1-c1[nH]cnc1-c1ccc2ncc(N3CCn4nc(C5=CCNC5)nc4C3)cc2n1` [Compound 2-14, 2-(5-(5-chloro-2-fluorophenyl)-1H-imidazol-4-yl)-7-(2-(2,5-dihydro-1H-pyrrol-3-yl)-5,6-dihydro-[1,2,4]triazolo[1,5-a]pyrazin-7(8H)-yl)-1,5-naphthyridine], in experiment [1], the IC50 is 200 to 1260 nM. In addition, the Ki in experiment [2] was 0.0398 to 0.316 nM.
Regarding `CN1CC=C(c2nc3n(n2)CCN(c2cnc4ccc(-c5nc[nH]c5-c5cc(Cl)ccc5F)nc4c2)C3)C1` [Compound 2-15, 2-(5-(5-chloro-2-fluorophenyl)-1H-imidazol-4-yl)-7-(2-(1-methyl-2,5-dihydro-1H-pyrrol-3-yl)-5,6-dihydro-[1,2,4]triazolo[1,5-a]pyrazin-7(8H)-yl)-1,5-naphthyridine], the IC50 in experiment [1] was 25.1 to 158 nM. For the same compound, the Ki in experiment [2] is no more than 0.0316 nM.
The matching figures for `CNCCn1ccc(-c2cnc3ccc(-c4nc[nH]c4-c4cc(Cl)ccc4F)nc3c2)n1` [Compound 2-16, 2-(3-(6-(5-(5-chloro-2-fluorophenyl)-1H-imidazol-4-yl)-1,5-naphthyridin-3-yl)-1H-pyrazol-1-yl)-N-methylethan-1-amine]: 25.1 to 158 nM and 0.0398 to 0.316 nM.
As for `Fc1ccc(Cl)cc1-c1[nH]cnc1-c1ccc2ncc(-c3cn[nH]c3)cc2n1` [Compound 2-17, 2-[5-(5-chloro-2-fluoro-phenyl)-1H-imidazol-4-yl]-7-(1H-pyrazol-4-yl)-1,5-naphthyridine], the IC50 in experiment [1] was 25.1 to 158 nM. Further, the Ki in experiment [2] is 0.0398 to 0.316 nM.
For the compound `Fc1ccc(Cl)cc1-c1[nH]cnc1-c1ccc2ncc(-c3cnn(C4CCCNC4)c3)cc2n1` (stereo not drawn) [Compound 2-18, 2-[5-(5-chloro-2-fluoro-phenyl)-1H-imidazol-4-yl]-7-[1-(3-piperidyl)pyrazol-4-yl]-1,5-naphthyridine], in experiment [1], the IC50 is 25.1 to 158 nM. Further, the Ki in experiment [2] is 0.0398 to 0.316 nM.
For `CNCCn1cc(-c2cnc3ccc(-c4nc[nH]c4-c4cc(Cl)ccc4F)nc3c2)cn1` [Compound 2-19, 2-[4-[6-[5-(5-chloro-2-fluoro-phenyl)-1H-imidazol-4-yl]-1,5-naphthyridin-3-yl]pyrazol-1-yl]-N-methyl-ethanamine], in that order: 25.1 to 158 nM and 0.0398 to 0.316 nM.
For the compound `NCCn1cc(-c2cnc3ccc(-c4nc[nH]c4-c4cc(Cl)ccc4F)nc3c2)cn1` [Compound 2-20, 2-[4-[6-[5-(5-chloro-2-fluoro-phenyl)-1H-imidazol-4-yl]-1,5-naphthyridin-3-yl]pyrazol-1-yl]ethanamine], the IC50 in experiment [1] was 25.1 to 158 nM. Moreover, in experiment [2], the Ki is 0.0398 to 0.316 nM.
For `Fc1ccc(Cl)cc1-c1[nH]cnc1-c1ccc2ncc(-c3cc4n(n3)CCNC4)cc2n1` [Compound 2-21, 2-(5-(5-chloro-2-fluorophenyl)-1H-imidazol-4-yl)-7-(4,5,6,7-tetrahydropyrazolo[1,5-a]pyrazin-2-yl)-1,5-naphthyridine], in that order: 25.1 to 158 nM and 0.0398 to 0.316 nM.
The matching figures for `Fc1ccc(Cl)cc1-c1[nH]cnc1-c1ccc2ncc(-c3cnn4c3CNCC4)cc2n1` [Compound 2-22, 2-[5-(5-chloro-2-fluoro-phenyl)-1H-imidazol-4-yl]-7-(4,5,6,7-tetrahydropyrazolo[1,5-a]pyrazin-3-yl)-1,5-naphthyridine]: 25.1 to 158 nM and 0.0398 to 0.316 nM.
For the compound `Fc1ccc(Cl)cc1-c1[nH]cnc1-c1ccc2ncc(-c3nnn4c3CNCC4)cc2n1` [Compound 2-23, 2-[5-(5-chloro-2-fluoro-phenyl)-1H-imidazol-4-yl]-7-(4,5,6,7-tetrahydrotriazolo[1,5-a]pyrazin-3-yl)-1,5-naphthyridine], the IC50 in experiment [1] was 25.1 to 158 nM. For the same compound, the Ki in experiment [2] is 0.0398 to 0.316 nM.
On to `Fc1ccc(Cl)cc1-c1[nH]cnc1-c1ccc2ncc(-c3cnc4n3CCNC4)cc2n1` [Compound 2-24, 2-[5-(5-chloro-2-fluoro-phenyl)-1H-imidazol-4-yl]-7-(5,6,7,8-tetrahydroimidazo[1,2-a]pyrazin-3-yl)-1,5-naphthyridine], for which, in experiment [1], the IC50 is 25.1 to 158 nM. The Ki in experiment [2] is 0.0398 to 0.316 nM.
The matching figures for `Fc1ccc(Cl)cc1-c1[nH]cnc1-c1ccc2ncc(-c3nc4n(n3)CCNC4)cc2n1` [Compound 2-25, 2-[5-(5-chloro-2-fluoro-phenyl)-1H-imidazol-4-yl]-7-(5,6,7,8-tetrahydro-[1,2,4]triazolo[1,5-a]pyrazin-2-yl)-1,5-naphthyridine]: 25.1 to 158 nM and 0.0398 to 0.316 nM.
For `Fc1ccc(Cl)cc1-c1[nH]cnc1-c1ccc2ncc(NCCN3CCCC3)cc2n1` [Compound 2-26, 6-[5-(5-chloro-2-fluoro-phenyl)-1H-imidazol-4-yl]-N-(2-pyrrolidin-1-ylethyl)-1,5-naphthyridin-3-amine], the IC50 in experiment [1] was no more than 20 nM. Also, the Ki in experiment [2] was 0.0398 to 0.316 nM.
For `Fc1ccc(Cl)cc1-c1[nH]cnc1-c1ccc2ncc(Nc3ccc(N4CCN(Cc5ccccc5)CC4)cn3)cc2n1` [Compound 2-27, N-[5-(4-benzylpiperazin-1-yl)-2-pyridyl]-6-[5-(5-chloro-2-fluoro-phenyl)-1H-imidazol-4-yl]-1,5-naphthyridin-3-amine], in that order: 25.1 to 158 nM and 3.98 to 31.6 nM.
As to `O=C(O)[C@H]1CN(c2cnc3ccc(-c4nc[nH]c4-c4cc(Cl)ccc4F)nc3c2)CCN1` [Compound 2-28, (2R)-4-[6-[5-(5-chloro-2-fluoro-phenyl)-1H-imidazol-4-yl]-1,5-naphthyridin-3-yl]piperazine-2-carboxylic acid], in experiment [1], the IC50 was 200 to 1260 nM. Also, the Ki in experiment [2] was 0.398 to 3.16 nM.
On to `C[C@@H]1CN(CCNc2cnc3ccc(-c4nc[nH]c4-c4cc(Cl)ccc4F)nc3c2)C[C@H](C)N1` [Compound 2-29, 6-(5-(5-chloro-2-fluorophenyl)-1H-imidazol-4-yl)-N-(2-((3S,5R)-3,5-dimethylpiperazin-1-yl)ethyl)-1,5-naphthyridin-3-amine], for which the IC50 in experiment [1] is 25.1 to 158 nM. The Ki in experiment [2] was 0.0398 to 0.316 nM.
Take `Fc1ccc(Cl)cc1-c1[nH]cnc1-c1ccc2ncc(NC[C@@H]3CCCN3)cc2n1` [Compound 2-30, 6-[5-(5-chloro-2-fluoro-phenyl)-1H-imidazol-4-yl]-N-[[(2S)-pyrrolidin-2-yl]methyl]-1,5-naphthyridin-3-amine]: the IC50 in experiment [1] was 200 to 1260 nM. Moreover, the Ki in experiment [2] is 0.398 to 3.16 nM.
The matching figures for `Fc1ccc(Cl)cc1-c1[nH]cnc1-c1ccc2ncc(NCC3CCCCN3)cc2n1` (stereo not drawn) [Compound 2-31, 6-[5-(5-chloro-2-fluoro-phenyl)-1H-imidazol-4-yl]-N-(2-piperidylmethyl)-1,5-naphthyridin-3-amine]: 25.1 to 158 nM and 0.398 to 3.16 nM.
For `O=C(O)CC1CNCCN1c1cnc2ccc(-c3nc[nH]c3-c3cc(Cl)ccc3F)nc2c1` (stereo not drawn) [Compound 2-32, 2-[1-[6-[5-(5-chloro-2-fluoro-phenyl)-1H-imidazol-4-yl]-1,5-naphthyridin-3-yl]piperazin-2-yl]acetic acid], in that order: 200 to 1260 nM and 3.98 to 31.6 nM.
For `O=C(O)CC1CNCCN1CCNc1cnc2ccc(-c3nc[nH]c3-c3cc(Cl)ccc3F)nc2c1` (stereo not drawn) [Compound 2-34, 2-[1-[2-[[6-[5-(5-chloro-2-fluoro-phenyl)-1H-imidazol-4-yl]-1,5-naphthyridin-3-yl]amino]ethyl]piperazin-2-yl]acetic acid], the IC50 in experiment [1] was 200 to 1260 nM. The Ki in experiment [2] was 0.0398 to 0.316 nM.
In the case of `COC(=O)CC1CNCCN1CCNc1cnc2ccc(-c3nc[nH]c3-c3cc(Cl)ccc3F)nc2c1` (stereo not drawn) [Compound 2-35, methyl 2-[1-[2-[[6-[5-(5-chloro-2-fluoro-phenyl)-1H-imidazol-4-yl]-1,5-naphthyridin-3-yl]amino]ethyl]piperazin-2-yl]acetate], the IC50 in experiment [1] is 25.1 to 158 nM. For the same compound, the Ki in experiment [2] was 0.0398 to 0.316 nM.
The matching figures for `COC(=O)CC1CN(CCNc2cnc3ccc(-c4nc[nH]c4-c4cc(Cl)ccc4F)nc3c2)CCN1` (stereo not drawn) [Compound 2-36, methyl 2-[4-[2-[[6-[5-(5-chloro-2-fluoro-phenyl)-1H-imidazol-4-yl]-1,5-naphthyridin-3-yl]amino]ethyl]piperazin-2-yl]acetate]: 25.1 to 158 nM and 0.0398 to 0.316 nM.
